Data published in US5776685A, “Protein kinase C assay” (Joslin Diabetes Center, priority 1996, dated 1998).

Legend:
bovine PKC alpha = assay: PKC catalytic activity in vitro (phosphorylation of [ser25]PKC19-31 in detergent cell extracts); assay type: biochemical; conditions: for inhibition of PKC alpha catalytic activity / activation of PKC alpha in vitro: PKC alpha expressed in yeast; for PMA and Ca^2+ stimulated mutant PKC activity: Ca^2+: Ca^2+ stimulation of in vitro catalytic activity; for PMA and Ca^2+ stimulated mutant PKC activity: PMA: PMA stimulation, common symbol for in vitro catalytic activity and PMA-mediated increase of cell doubling time; for PMA and Ca^2+ stimulated mutant PKC activity: -: no stimulus (basal), common symbol for in vitro catalytic activity and cell doubling time response
Protocol: FIG. 4 is a graph which compares PKC mutant and wild type catalytic activities in vitro. […] Catalytic activity was stimulated by combinations of phosphatidylserine (PS), the phorbol ester PMA and calcium ions (Ca^2+). PS, open; PMA+PS, solid; Ca^2+ +PS, diagonally striped.
Cell lysis. About 6×10^8 expressing cells were washed in PBS and were resuspended in 1 ml lysis buffer containing 1% Triton X100, 50 mM Hepes pH 7.4, 15-mM NaC1, 5 mM EDTA, 5 mM EGTA, 10 μg/ml pepstatin, 40 μg/ml leupeptin, 10 μg/ml aprotinin and 200 μg/ml PMSF. Cell suspensions mixed with the same volume of acid washed glass beads (450-500 μm) were lysed mechanically by six 30 second vortexing steps interrupted by cooling on ice for at least 30 second in 50 ml screw cap polypropylene tubes. The lysate was cleared by 4,000 g centrifugation for 15 minutes at 4 degrees C and stored at […] for up to several weeks.
PKC catalytic activity. […] Phosphatidylserine in chloroform, with or without PMA was evaporated under N2 to dryness, resuspended in 20 mM Tris pH 7.5, mixed and sonicated at 4 degrees C for 45 seconds before use. To terminate the reaction the sample was placed on phosphocellulose paper (Whatman P81) which was repeatedly washed in 75 mM phosphoric acid. Bound radioactivity was determined by liquid scintillation spectroscopy.

[1] = test system: Saccharomyces cerevisiae strain 334 expressing bovine PKC alpha; assay: Cell doubling time of yeast cultures expressing PKC alpha wild type and mutant cDNAs; assay type: cell-based; conditions: wild-type yeast cells without mammalian PKC, 1 μM PMA
Protocol: FIG. 2 is a graph of cell doubling time of yeast cultures expressing PKC alpha wild type and mutant cDNAs. Freshly saturated cultures expressing control plasmids (Cont.), normal PKC alpha (PKCa) or deletion mutants D172-225, ND153 or CD26 were diluted to low cell densities. Cell growth was followed on a roller at 30 degrees C to measurable cell densities of the logarithmic growth phase at 0.2-0.6 O.D. 600. […] Average doubling times were calculated.
Yeast strains and culture conditions. PKC expression plasmids and YEp51 or YEp52 as controls were introduced into Saccharomyces cerevisiae strain 334 [MAT alpha, pep 4-3, prb1-122, ura 3-52; leu2-3, 112, reg1-501, gal1]by lithium acetate transformation See e.g., Ito et al. 1983, J. Bacterial. 153: 163. Cells were routinely grown at 30 degrees C on a culture roller or shaker in liquid culture or on 1.5% agar plates. The synthetic medium contained 2% glucose and was leucine-free to select for stable propagation of the expression plasmids. Expressing yeast colonies were identified phenotypically by replica plating on medium containing or lacking PMA. Phenol extracts of crude cell lysates were prepared to re-transform Escherichia coli DH5 alpha. PKC mutants were characterized by DNA sequencing and defined plasmids were re-introduces into S. cerevisiae 334. These strains were used in all experiments shown. 50 ml cultures were routinely inoculated from freshly saturated cultures and grown for 16 h to an optical density of 0.4 at O.D.600.
Cell doubling times were measured by O.D.600 reading of liquid cultures in the presence of 2% galactose as shown in FIG. 2 to test whether they correlate with the specific phenotypes (colony size) caused by normal mutant PKC alpha. […] A normal 4 hours doubling time was measured for all constructs in the absence of galactose.

| Compound | inhibition of PKC alpha catalytic activity (bovine PKC alpha) | activation of PKC alpha in vitro (bovine PKC alpha) | PMA and Ca^2+ stimulated mutant PKC activity: Ca^2+ (bovine PKC alpha) | PMA and Ca^2+ stimulated mutant PKC activity: PMA (bovine PKC alpha) | PMA and Ca^2+ stimulated mutant PKC activity: - (bovine PKC alpha) | also measured |
| --- | --- | --- | --- | --- | --- | --- |
| COc1ccc2c(c[n+](C)c3c4cc5c(cc4ccc23)OCO5)c1OC [chelerythrine, reference compound] | efficiently inhibited |  |  |  |  |  |
| CCCCCCCCCCCCC/C=C/[C@@H](O)[C@@H](N)CO[C@@H]1O[C@H](CO)[C@H](O)[C@H](O)[C@H]1O [psychosine, reference compound] | efficiently inhibited |  |  |  |  |  |
| CC(C)[C@H]1C(=O)N[C@H](CO)Cc2c[nH]c3cccc(c23)N1C [(-)-indolactam V, reference compound] |  | efficiently activated |  |  |  |  |
| CD149: PKC alpha deletion mutant lacking 149 carboxyl terminal aa |  |  | - | - | - |  |
| CD96: PKC alpha deletion mutant lacking 96 carboxyl terminal aa |  |  | - | - | - |  |
| CCCCCCCCCCCCCC(=O)O[C@@H]1[C@@H](C)[C@@]2(O)[C@@H](C=C(CO)C[C@]3(O)C(=O)C(C)=C[C@@H]23)[C@@H]2C(C)(C)[C@]12OC(C)=O [PMA, phorbol-12-myristate-13-acetate, reference compound] |  | efficiently activated |  |  |  | response of wild-type yeast cells (doubling time, colony size) [1]: did not respond |
| CN1CCN(CCCN2c3ccccc3Sc3ccc(C(F)(F)F)cc32)CC1 [trifluoperazine, reference compound] | efficiently inhibited |  |  |  |  |  |
| polymyxin B [reference compound] | efficiently inhibited |  |  |  |  |  |
| CN(C)c1ccc2cc3ccc(N(C)C)cc3nc2c1 [acridine orange, reference compound] | efficiently inhibited |  |  |  |  |  |
| ND158: PKC alpha deletion mutant lacking 158 amino terminal aa |  |  | ++ | + | + |  |
| Cc1cc(N)c2ccccc2[n+]1CCCCCCCCCC[n+]1c(C)cc(N)c2ccccc21 [dequalinium, reference compound] | efficiently inhibited |  |  |  |  |  |
| ND84: PKC alpha deletion mutant lacking 84 amino terminal aa |  |  | ++ | + | + |  |
| ND188: PKC alpha deletion mutant lacking 118 amino terminal aa (printed ND188 in Table 1) |  |  | ++ | + | + |  |
| CCCCCCCCCCN(C)c1cc(CO)cc(NC(C)=O)c1 [ADMB, 3-(N-acetylamino)-5(N-decyl-N-methylamino) benzyl alcohol, reference compound] |  | efficiently activated |  |  |  |  |
| CC1CNCCN1S(=O)(=O)c1cccc2cnccc12 (racemic) [H-7, reference compound] | efficiently inhibited |  |  |  |  |  |
| CC1=CC23C(=O)C(C=C(COC(=O)c4ccccc4)C(O)C2(O)C1OC(=O)c1ccccc1)C1C(CC3C)C1(C)C (stereo not drawn) [ID, ingenol 3,20-dibenzoate, reference compound] |  | efficiently activated |  |  |  |  |
| ND 140: PKC alpha deletion mutant lacking 140 amino terminal aa |  |  | ++ | + | + |  |
| CD110: PKC alpha deletion mutant lacking 110 carboxyl terminal aa |  |  | - | - | - |  |
| CD139: PKC alpha deletion mutant lacking 139 carboxyl terminal aa |  |  | - | - | - |  |
| C=C(C)C12OC3(c4ccccc4)OC1C1C4OC4(CO)C(O)C4(O)C(=O)C(C)=CC4C1(O3)C(C)C2OC(=O)/C=C/C=C/c1ccccc1 (stereo not drawn) [mezerein, reference compound] |  | efficiently activated |  |  |  |  |
| CCCCCCCCCCNc1cc(CO)c2cc[nH]c2c1 [DHI, 6-(N-decylamino)-4-hydroxymethylindole, reference compound] |  | efficiently activated |  |  |  |  |
| CC1=C[C@H]2[C@@]3(O)[C@H](C)C[C@]4(OC(=O)Cc5ccccc5)[C@H]([C@@H]3C=C(CO)C[C@]2(O)C1=O)C4(C)C [dPP, 12-deoxyphorbol 1 3-phenylacetate, reference compound] |  | efficiently activated |  |  |  |  |
